Source: patent US20100305113A1, “Substituted Imidazopyridazines as Lipid Kinase Inhibitors” (priority 2007, published 2010)

Tests used:
Type in all cases: biochemical
Conditions in all cases: Enzymatic Data
PI3K gamma = molecular target: T1, PI3K gamma (Homo sapiens, UniProt P48736); test: PI3K gamma enzymatic assay (Kinase-Glo luminescence)
T1 construct: His tag (C); made in house; host or cells: construct from Roger Williams lab (MRC LMB); baculovirus (pVL1393); Tn5 (Trichoplusia ni) or TiniPro insect cells
Procedure: (§1) In a more preferred assay, the kinase reaction is performed in a final volume of 10 μL per well of a low volume non binding CORNING, 384 well black plate (Cat. No. #3676). The final concentrations of ATP and phosphatidyl inositol (PI) in the assay are 1 μM and 10 μg/mL respectively. The reaction is started by the addition of ATP.
(§2) The components of the assay are added per well as follows:
(§3) 50 nL test compounds in 90% DMSO per well, in columns 1-20, 8 concentrations (⅓ and 1/3.33 serial dilution step) in single. • Low control: 50 nL of 90% DMSO in half the wells of columns 23-24 (0.45% in final). • High control: 50 nL of reference compound (e.g. compound of Example 7 in WO 2006/122806, incorporated by reference herein that regard) in the other half of columns 23-24 (2.5 μM in final). • Standard: 50 nL of reference compound as just mentioned diluted as the test compounds in columns 21-22 • 20 mL ‘buffer’ are prepared per assay: • 200 μL of 1M TRIS HCl pH7.5 (10 mM in final) • 60 μL of 1M MgCl2 (3 mM in final) • 500 μL of 2M NaCl (50 mM in final) • 100 μL of 10% CHAPS (0.05% in final) • 200 μL of 100 mM DTT (1 mM in final) • 18.94 mL of nanopure water • 10 mL ‘PI’ are prepared per assay: • 200 μL of 1 mg/ml L-alpha-Phosphatidylinositol (Liver Bovine, Avanti Polar Lipids Cat. No. 840042C MW=909.12) prepared in 3% OctylGlucoside ([…]) • 9.8 mL of ‘buffer’ • 10 mL ‘ATP’ are prepared per assay: • 6.7 μL of 3 mM stock of ATP giving a final concentration of 1 μM per well • 10 mL of ‘buffer’ • 2.5 mL of each PI3K construct are prepared per assay in ‘PI’ with the following final concentration: • 10 nM PI3K alfa BV-1075 • 25 nM beta BV-949 • 10 nM delta BV-1060 • 150 nM gamma BV-950 • 5 μL of ‘PI/PI3K’ are added per well. • 5 μl ‘ATP’ are added per well to start the reaction. • The plates are then incubated at room temperature for 60 minutes (alfa, beta, delta) or 120 minutes (gamma). • The reaction is terminated by the addition of 10 μL Kinase-Glo (Promega Cat. No. #6714). • The assay plates are read after 10 minutes in Synergy 2 reader (BioTek, Vermont USA) with an integration time of 100 milliseconds and sensitivity set to 191. • Output: The High control is around 60′000 counts and the Low control is 30′000 or lower • This luminescence assay gives a useful Z′ ratio between 0.4 and 0.7 The Z′ value is a universal measurement of the robustness of an assay. A Z′ between 0.5 and 1.0 is considered an excellent assay.
(§4) IC50 is determined by a four parameter curve fitting routine that comes aloneg with “excel fit”. A 4 Parameter logistic equation is used to calculate IC50 values (IDBS XLfit) of the percentage inhibition of each compound at 8 concentrations (usually 10, 3.0, 1.0, 0.3, 0.1, 0.030, 0.010 and 0.003 μM). Alternatively, IC50 values are calculated using idbsXLfit model 204, which is a 4 parameter logistic model.

PI3K alfa = molecular target: T2, PI3K alfa (Homo sapiens, UniProt P42336); test: PI3K alfa enzymatic assay (Kinase-Glo luminescence)
T2 construct: p85(iSH2) fusion partner (same polypeptide; see partner chain) (N); 12x Gly linker (N); His tag (C); made in house; host or cells: baculovirus; Tn5 (Trichoplusia ni) or TiniPro insect cells
Procedure: as §1, §2, §3, §4

PI3K beta = molecular target: T3, PI3K beta (Homo sapiens, UniProt P42338); test: PI3K beta enzymatic assay (Kinase-Glo luminescence)
T3 construct: for the full-length p110-b subunit are generated and fused by overlapping PCR; p85(iSH2) fusion partner (same polypeptide; see partner chain) (N); Gly linker (N); His tag (C); made in house; host or cells: baculovirus; Tn5 (Trichoplusia ni) or TiniPro insect cells
Procedure: as §1, §2, §3
PI3Kβ BV-949 p85(iSH2)-Gly linker-p110b (Full-Length)-C-Term His Tag
as §4

PI3K delta = molecular target: T4, PI3K delta (Homo sapiens, UniProt O00329); test: PI3K delta enzymatic assay (Kinase-Glo luminescence)
T4 construct: for the full-length p110-d subunit are generated and fused by overlapping PCR; p85(iSH2) fusion partner (same polypeptide; see partner chain) (N); Gly linker (N); His tag (C); made in house; host or cells: baculovirus; Tn5 (Trichoplusia ni) or TiniPro insect cells
Procedure: as §1, §2, §3
PI3Kδ BV-1060 p85(iSH2)-Gly Linker-p110d (Full-Length)-C-term His Tact
as §4

T3 sequence (P42338 with tags, fused parts or gaps limits assumed): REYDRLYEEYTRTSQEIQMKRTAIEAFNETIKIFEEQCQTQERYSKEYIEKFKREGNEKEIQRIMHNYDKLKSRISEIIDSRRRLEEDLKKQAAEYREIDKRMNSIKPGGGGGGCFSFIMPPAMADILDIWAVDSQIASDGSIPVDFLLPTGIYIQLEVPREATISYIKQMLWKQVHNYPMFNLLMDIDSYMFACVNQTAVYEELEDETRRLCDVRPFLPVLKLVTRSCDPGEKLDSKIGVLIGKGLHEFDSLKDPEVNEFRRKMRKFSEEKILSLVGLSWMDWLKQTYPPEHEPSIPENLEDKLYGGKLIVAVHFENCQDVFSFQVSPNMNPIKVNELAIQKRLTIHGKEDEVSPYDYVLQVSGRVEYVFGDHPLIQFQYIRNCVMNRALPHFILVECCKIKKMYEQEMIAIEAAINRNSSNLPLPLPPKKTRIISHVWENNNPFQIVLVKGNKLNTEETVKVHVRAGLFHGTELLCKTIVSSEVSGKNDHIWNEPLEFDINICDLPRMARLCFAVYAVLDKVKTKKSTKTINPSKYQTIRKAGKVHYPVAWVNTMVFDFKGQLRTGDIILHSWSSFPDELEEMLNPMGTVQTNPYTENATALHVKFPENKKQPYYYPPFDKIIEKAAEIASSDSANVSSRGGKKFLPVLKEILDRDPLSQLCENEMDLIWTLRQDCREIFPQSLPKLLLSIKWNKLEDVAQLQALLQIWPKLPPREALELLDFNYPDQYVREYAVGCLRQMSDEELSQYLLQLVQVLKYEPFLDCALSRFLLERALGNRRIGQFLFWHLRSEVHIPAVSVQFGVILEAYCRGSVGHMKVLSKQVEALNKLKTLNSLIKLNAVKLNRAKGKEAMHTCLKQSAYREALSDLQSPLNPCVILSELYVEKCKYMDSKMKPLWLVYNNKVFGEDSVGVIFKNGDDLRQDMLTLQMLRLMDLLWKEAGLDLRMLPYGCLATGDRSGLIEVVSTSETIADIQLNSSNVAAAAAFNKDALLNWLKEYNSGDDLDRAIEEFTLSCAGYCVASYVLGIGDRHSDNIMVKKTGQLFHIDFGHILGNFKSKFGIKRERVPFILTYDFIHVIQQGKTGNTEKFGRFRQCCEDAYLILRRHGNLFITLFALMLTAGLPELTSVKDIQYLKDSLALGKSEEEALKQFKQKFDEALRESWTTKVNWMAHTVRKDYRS
T1 sequence (P48736 144-1102 limits assumed): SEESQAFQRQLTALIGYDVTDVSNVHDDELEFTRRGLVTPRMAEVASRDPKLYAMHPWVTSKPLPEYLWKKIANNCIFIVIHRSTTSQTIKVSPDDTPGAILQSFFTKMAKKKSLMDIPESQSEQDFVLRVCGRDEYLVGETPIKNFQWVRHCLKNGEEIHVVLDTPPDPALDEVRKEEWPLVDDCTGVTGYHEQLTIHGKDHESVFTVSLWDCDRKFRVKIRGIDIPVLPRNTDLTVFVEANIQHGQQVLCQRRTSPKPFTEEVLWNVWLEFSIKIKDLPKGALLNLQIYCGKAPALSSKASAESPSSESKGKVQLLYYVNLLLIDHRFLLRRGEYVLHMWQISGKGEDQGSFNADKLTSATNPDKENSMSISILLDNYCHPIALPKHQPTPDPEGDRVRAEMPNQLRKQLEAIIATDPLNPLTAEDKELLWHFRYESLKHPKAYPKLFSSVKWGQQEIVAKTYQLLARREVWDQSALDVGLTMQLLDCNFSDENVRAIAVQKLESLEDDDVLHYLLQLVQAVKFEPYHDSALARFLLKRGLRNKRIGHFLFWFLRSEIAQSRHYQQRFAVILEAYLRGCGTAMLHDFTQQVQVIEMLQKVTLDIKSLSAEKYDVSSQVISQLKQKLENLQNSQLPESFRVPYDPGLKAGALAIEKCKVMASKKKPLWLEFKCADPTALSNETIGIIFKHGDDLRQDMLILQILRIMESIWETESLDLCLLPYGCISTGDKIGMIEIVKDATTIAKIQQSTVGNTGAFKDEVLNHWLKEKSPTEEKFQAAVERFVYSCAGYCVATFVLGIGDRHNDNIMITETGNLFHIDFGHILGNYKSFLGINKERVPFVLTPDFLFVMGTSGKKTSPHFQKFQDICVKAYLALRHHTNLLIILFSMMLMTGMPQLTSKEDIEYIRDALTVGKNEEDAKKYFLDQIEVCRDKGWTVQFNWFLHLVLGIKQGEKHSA
T2 sequence (P42336 with tags, fused parts or gaps limits assumed): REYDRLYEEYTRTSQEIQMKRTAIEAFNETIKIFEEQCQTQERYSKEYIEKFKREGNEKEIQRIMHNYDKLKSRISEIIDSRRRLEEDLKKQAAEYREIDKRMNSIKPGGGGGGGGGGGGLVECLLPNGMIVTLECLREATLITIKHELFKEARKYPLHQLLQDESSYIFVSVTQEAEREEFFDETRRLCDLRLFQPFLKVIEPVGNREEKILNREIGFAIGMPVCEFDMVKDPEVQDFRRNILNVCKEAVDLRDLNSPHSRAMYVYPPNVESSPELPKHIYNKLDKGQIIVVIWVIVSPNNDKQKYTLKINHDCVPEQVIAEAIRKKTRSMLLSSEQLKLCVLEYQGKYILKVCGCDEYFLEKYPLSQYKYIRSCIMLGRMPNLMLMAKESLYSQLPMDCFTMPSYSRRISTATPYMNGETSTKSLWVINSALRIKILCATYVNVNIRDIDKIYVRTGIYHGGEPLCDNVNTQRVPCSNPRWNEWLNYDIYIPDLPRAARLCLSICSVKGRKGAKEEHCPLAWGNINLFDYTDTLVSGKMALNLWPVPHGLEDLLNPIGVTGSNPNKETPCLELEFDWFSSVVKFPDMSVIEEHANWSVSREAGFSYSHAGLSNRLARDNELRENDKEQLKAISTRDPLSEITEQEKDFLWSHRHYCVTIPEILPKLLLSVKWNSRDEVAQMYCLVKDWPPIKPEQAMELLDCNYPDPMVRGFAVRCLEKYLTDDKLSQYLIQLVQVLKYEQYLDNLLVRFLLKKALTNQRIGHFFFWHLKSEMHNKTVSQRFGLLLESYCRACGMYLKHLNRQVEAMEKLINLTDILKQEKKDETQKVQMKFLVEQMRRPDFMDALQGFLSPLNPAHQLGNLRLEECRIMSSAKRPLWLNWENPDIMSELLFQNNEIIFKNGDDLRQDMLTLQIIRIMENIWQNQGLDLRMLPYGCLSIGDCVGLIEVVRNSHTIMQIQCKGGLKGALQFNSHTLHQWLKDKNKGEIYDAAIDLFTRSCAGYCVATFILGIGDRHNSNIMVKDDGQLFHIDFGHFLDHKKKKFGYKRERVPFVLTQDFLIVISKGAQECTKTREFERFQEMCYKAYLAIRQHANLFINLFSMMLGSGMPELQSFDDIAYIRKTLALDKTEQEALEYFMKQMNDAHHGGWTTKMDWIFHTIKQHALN
T4 sequence (O00329 with tags, fused parts or gaps limits assumed): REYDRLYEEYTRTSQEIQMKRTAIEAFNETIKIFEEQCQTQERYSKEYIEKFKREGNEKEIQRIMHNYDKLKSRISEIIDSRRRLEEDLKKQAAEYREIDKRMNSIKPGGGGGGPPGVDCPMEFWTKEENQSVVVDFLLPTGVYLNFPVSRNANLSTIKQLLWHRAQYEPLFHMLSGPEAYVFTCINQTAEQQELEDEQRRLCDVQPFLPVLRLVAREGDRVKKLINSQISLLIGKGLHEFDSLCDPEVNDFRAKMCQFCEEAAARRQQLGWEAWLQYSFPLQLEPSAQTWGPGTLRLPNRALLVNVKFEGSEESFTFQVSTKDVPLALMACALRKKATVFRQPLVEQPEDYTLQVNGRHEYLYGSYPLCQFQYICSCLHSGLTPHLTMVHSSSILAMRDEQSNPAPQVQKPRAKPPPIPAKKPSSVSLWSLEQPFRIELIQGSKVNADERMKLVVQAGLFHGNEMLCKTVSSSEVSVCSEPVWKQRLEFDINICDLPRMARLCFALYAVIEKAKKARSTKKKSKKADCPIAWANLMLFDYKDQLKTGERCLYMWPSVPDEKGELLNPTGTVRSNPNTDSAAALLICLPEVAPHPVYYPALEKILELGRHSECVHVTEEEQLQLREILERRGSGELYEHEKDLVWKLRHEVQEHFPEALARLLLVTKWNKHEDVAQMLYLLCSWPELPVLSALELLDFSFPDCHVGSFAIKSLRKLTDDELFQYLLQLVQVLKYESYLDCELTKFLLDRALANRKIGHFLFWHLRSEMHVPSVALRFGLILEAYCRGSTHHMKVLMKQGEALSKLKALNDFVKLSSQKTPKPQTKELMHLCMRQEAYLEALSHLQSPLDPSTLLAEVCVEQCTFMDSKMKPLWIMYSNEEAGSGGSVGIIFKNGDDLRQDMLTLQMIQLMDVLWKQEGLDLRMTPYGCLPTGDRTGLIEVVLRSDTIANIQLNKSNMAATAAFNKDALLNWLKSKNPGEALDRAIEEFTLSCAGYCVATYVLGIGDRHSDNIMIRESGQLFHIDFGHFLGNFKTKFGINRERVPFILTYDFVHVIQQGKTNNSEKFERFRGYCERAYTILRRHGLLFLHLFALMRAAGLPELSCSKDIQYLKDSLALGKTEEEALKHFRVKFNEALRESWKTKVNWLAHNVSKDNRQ

Row | SMILES | IC50 (PI3K gamma) [nM] | IC50 (PI3K alfa) [nM] | IC50 (PI3K beta) [nM] | IC50 (PI3K delta) [nM]
1 | COc1ccc(-c2ccc3nc(C)c(-c4ccc(F)nc4)n3n2)cc1OC [Example 1, 6-(3,4-Dimethoxy-phenyl)-3-(6-fluoro-pyridin-3-yl)-2-methyl-imidazo[1,2-b]pyridazine] | 241 | 206 | 1680 | 1350
2 | COc1ccc(-c2ccc3nc(C)c(-c4ccc(N5CCOCC5)nc4)n3n2)cc1OC [Example 5] | 613 | 111 | 1570 | 1090
3 | COc1ccc(-c2ccc3nc(C)c(-c4cncc(C#N)c4)n3n2)cc1OC [Example 6] | 1850 | 455 | 4190 | 2710
4 | COc1ccc(-c2ccc3nc(C)c(-c4ccc(N5CCNCC5)nc4)n3n2)cc1OC [Example 11, 6-(3,4-Dimethoxy-phenyl)-2-methyl-3-(6-piperazin-1-yl-pyridin-3-yl)-imidazo[1,2-b]pyridazine] | 536 | 110 | 613 | 2390
5 | CCOc1ccc(-c2ccc3nc(C)c(-c4ccc(N5CCOCC5)nc4)n3n2)cc1OC [Example 14, 6-(4-Ethoxy-3-methoxy-phenyl)-2-methyl-3-(6-morpholin-4-yl-pyridin-3-yl)-imidazo[1,2-b]pyridazine] | 688 | 138 | 5150 | 2050
6 | COc1ccc(-c2ccc3nc(C)c(-c4ncccc4C)n3n2)cc1OC [Example 16, 6-(3,4-Dimethoxy-phenyl)-2-methyl-3-(3-methyl-pyridin-2-yl)-imidazo[1,2-b]pyridazine] | > 25000 | > 25000 | > 25000 | > 25000
7 | COc1ccc(-c2ccc3nc(C)c(-c4cnccn4)n3n2)cc1OC [Example 17, 6-(3,4-Dimethoxy-phenyl)-2-methyl-3-pyrazin-2-yl-imidazo[1,2-b]pyridazine] | 797 | 181 | 4480 | 2020
8 | COc1ccc(-c2ccc(-c3ccc4nc(C)c(-c5ccc(N6CCOCC6)nc5)n4n3)cc2)cc1 [Example 18, 6-(4′-Methoxy-biphenyl-4-yl)-2-methyl-3-(6-morpholin-4-yl-pyridin-3-yl)-imidazo[1,2-b]pyridazine] | > 25000 | > 25000 | 5160 | > 25000
9 | Cc1nc2ccc(-c3ccc(S(C)(=O)=O)cc3)nn2c1-c1cncc(C#N)c1 [Example 19, 5-[6-(4-Methanesulfonyl-phenyl)-2-methyl-imidazo[1,2-b]pyridazin-3-yl]-nicotinonitrile] | 5180 | 1290 | 12300 | 5500
10 | COc1ccc(-c2ccc3nc(C)c(-c4cc[nH]n4)n3n2)cc1OC [Example 20, 6-(3,4-Dimethoxy-phenyl)-2-methyl-3-(1H-pyrazol-3-yl)-imidazo[1,2-b]pyridazine] | 358 | 220 | 3240 | 1390
11 | COc1ccc(-c2ccc3nc(C)c(-c4ccn(S(=O)(=O)c5ccc(C#N)cc5)n4)n3n2)cc1OC [Example 21, 4-{3-[6-(3,4-Dimethoxy-phenyl)-2-methyl-imidazo[1,2-b]pyridazin-3-yl]-pyrazole-1-sulfonyl}-benzonitrile] | 655 | 408 | > 9100 | 406
12 | COc1ccc(S(=O)(=O)n2ccc(-c3c(C)nc4ccc(-c5ccc(OC)c(OC)c5)nn34)n2)cc1 [Example 22, 6-(3,4-Dimethoxy-phenyl)-3-[1-(4-methoxy-benzenesulfonyl)-1H-pyrazol-3-yl]-2-methyl-imidazo[1,2-b]pyridazine] | 1500 | 781 | > 9100 | 889
13 | COc1ccc(-c2ccc3nc(C)c(-c4ccn(S(=O)(=O)c5cccc(C#N)c5)n4)n3n2)cc1OC [Example 23, 3-{3-[6-(3,4-Dimethoxy-phenyl)-2-methyl-imidazo[1,2-b]pyridazin-3-yl]-pyrazole-1-sulfonyl}-benzonitrile] | 511 | 136 | > 9100 | 124
14 | COc1cc(-c2ccc3nc(C)c(-c4cnc(N)c(C(F)(F)F)c4)n3n2)ccc1OCCNC(=O)c1cccc(C#N)c1 [Example 27] | 2280 | 456 | > 9100 | > 9100

Stronger by IC50 (PI3K alfa), values ahead:

Row | IC50 (PI3K gamma) [nM] | IC50 (PI3K alfa) [nM] | IC50 (PI3K beta) [nM] | IC50 (PI3K delta) [nM] | SMILES
15 |  | 96.4 | 2310 | 514 | COc1ccc(-c2c(C)nc3ccc(-c4ccc(OC)c(OC)c4)nn23)cn1 [Example 3]
16 | 419 | 96 | 976 | 694 | COc1ccc(-c2ccc3nc(C)c(-c4ccc(N)nc4)n3n2)cc1OC [Example 7]
17 | > 25000 | 58 | 4160 | > 25000 | CCOc1ccc(-c2ccc3nc(C)c(-c4ccc(-c5ccc(C#N)nc5)nc4)n3n2)cc1OC [Example 13, 5-[6-(4-Ethoxy-3-methoxy-phenyl)-2-methyl-imidazo[1,2-b]pyridazin-3-yl]-[2,3]bipyridinyl-6′-carbonitrile]
18 | 345 | 44 | 1210 | 152 | COc1ccc(-c2ccc3nc(C)c(-c4ccc(C#N)nc4)n3n2)cc1OC [Example 4]
19 | 303 | 42 | 1170 | 456 | COc1ccc(-c2ccc3nc(C)c(-c4ccc(O)nc4)n3n2)cc1OC [Example 8, 5-[6-(3,4-dimethoxy-phenyl)-2-methyl-imidazo[1,2-b]pyridazin-3-yl]-pyridin-2-ol]
20 | 211 | 39 | 51 | 52 | COc1cc(-c2ccc3nc(C)c(-c4cnc(N)c(C(F)(F)F)c4)n3n2)ccc1OCCN [Example 24, 5-{6-[4-(2-Amino-ethoxy)-3-methoxy-phenyl]-2-methyl-imidazo[1,2-b]pyridazin-3-yl}-3-trifluoromethyl-pyridin-2-ylamine]
21 | 507 | 15 | 193 | 24 | COc1cc(-c2ccc3nc(C)c(-c4cnc(N)c(C(F)(F)F)c4)n3n2)ccc1OCCCN [Example 25, 5-{6-[4-(3-Amino-propoxy)-3-methoxy-phenyl]-2-methyl-imidazo[1,2-b]pyridazin-3-yl}-3-trifluoromethyl-pyridin-2-ylamine]
22 | 157 | 5.9 | 150 | 69 | COc1ccc(-c2ccc3nc(C)c(-c4cnc(N)c(C(F)(F)F)c4)n3n2)cc1OC [Example 15, 5-[6-(3,4-Dimethoxy-phenyl)-2-methyl-imidazo[1,2-b]pyridazin-3-yl]-3-trifluoromethyl-pyridin-2-ylamine]
